From PubChem BioAssay (NCI) come the findings set out here.

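Grown in 96-well plates, cells were treated for 48 hours with each compound at five concentrations. Insufficient inhibition: endpoint recorded as highest concentration tested. The concentration for 50% growth inhibition is given as GI50. TGI denotes the concentration required for complete inhibition of growth.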 Bounds are passed on as bounds.

Common to all, as to assay: NCI anticancer screen, dose series, 48 h
Experiment [1] has as its system NCI-H522 lung.
Experiment [2] has as its system HT29 colon.
Experiment [3] relates to RPMI-8226 leukemia.
The subject of experiment [4] is K-562 leukemia.
Experiment [5] has as its system SF-295 CNS.
Experiment [6] relates to SW-620 colon.
For experiment [7], the system named is SK-MEL-28 melanoma.
Experiment [8] has as its system OVCAR-4 ovarian.
For experiment [9], the system named is HCT-15 colon.
For experiment [10], the system named is HL-60(TB) leukemia.

Take `ClCc1ccc(Cn2cnc3ncnc(Cl)c32)cc1`: the GI50 in experiment [1] is 4.3 µM; in [2], 1220 nM; in experiment [3] it was 1.28 µM; in experiment [4] it was 3.03 µM; in experiment [5], 2060 nM; in experiment [6] it was 2580 nM. Besides, the TGI was > 100 µM in experiment [1]; 3.59 µM in experiment [2]; 2.67 µM in [3]; > 100 µM in experiment [4]; 5.07 µM in experiment [5]; 7.18 µM in [6].
For `OCC(O)C(OC1OC(CO)C(O)C(O)C1O)c1nn(-c2ccc(F)cc2)c2nc3cc(Cl)c(Cl)cc3cc12` (stereo not given), the TGI in experiment [7], in experiment [8], in experiment [9], in [1], in [2] and in experiment [3] was > 100 µM throughout. In addition, the TGI in [4] and in experiment [5] was > 100 µM each time.
Regarding `COc1cc(C=NCC(=O)CSC(c2ccccc2)c2ccccc2)cc(OC)c1OC`, the GI50 is 23800 nM in experiment [7]; 5.18 µM in experiment [8]; 21500 nM in experiment [9]; 8000 nM in experiment [2]; 5.18 µM in [3]; 8.01 µM in [10]. The GI50 in experiment [4] was 8.63 µM; in experiment [5], 11500 nM; in experiment [6], 32700 nM. Besides, the TGI in [7] is > 100 µM; in experiment [8] it was 64.4 µM; in experiment [9], > 100 µM; in experiment [2], 83.6 µM; in experiment [3], 39.9 µM; in [10], 26.8 µM. The results for the TGI in experiment [4], in experiment [5] and in experiment [6] were 93.7 µM, 58.2 µM and > 100 µM, respectively.
For `COc1ccc(C2CC(C)=Nc3c([nH]c(=S)[nH]c3=O)N2)cc1` (stereo not given), the TGI was 60.5 µM in experiment [7]; 33 µM in experiment [9]; 30.1 µM in experiment [1]; 47.3 µM in experiment [2]; 50.3 µM in [3]; 40.1 µM in experiment [10]. Besides, the TGI turned out to be 34.4 µM in experiment [4], 48.5 µM in experiment [5] and 19 µM in experiment [6].
Regarding `CC12CC(=O)NN=C1c1ccccc1C2` (stereo not given), the TGI in experiment [7], in experiment [9], in experiment [1], in [2], in experiment [3] and in experiment [10] was > 100 µM each time. Also, the TGI in experiment [4], in experiment [5] and in [6] was > 100 µM each time.
With `NC(=O)Cn1c(=O)[nH]c(=O)c2[nH]cnc21`, the TGI in experiment [7], in [9], in experiment [1], in experiment [2], in [10] and in experiment [4] was > 100 µM each time. In experiment [6], the TGI was > 100 µM.
As for `CCCCCCCCSC(SCCCCCCCC)=C1C(=O)N(c2ccccc2)N=C1C`, the TGI in experiment [7] is > 100 µM; in experiment [9], > 100 µM; in [1] it was 57.1 µM; in experiment [2], > 100 µM; in experiment [3], 61.9 µM; in experiment [10], 43.7 µM. Also, the TGI in experiment [4] was 84.6 µM; in experiment [5], > 100 µM; in [6], 29 µM.
Consider `C=C(C)[C@@H]1CC[C@]2(C#N)CC[C@]3(C)[C@H](CC[C@@H]4[C@@]5(C)CCCNC(C)(C)[C@@H]5CC[C@]43C)[C@@H]12`, for which the GI50 in experiment [7] is 1920 nM; in experiment [8], 2.16 µM; in experiment [9], 1610 nM; in experiment [1], 1.93 µM; in [2], 1640 nM; in experiment [4], 2.09 µM. Further, the values for the GI50 in experiment [5] and in [6] were 1700 nM and 1770 nM, respectively. Also, the TGI was 3.5 µM in experiment [7]; 4.44 µM in [8]; 3.05 µM in [9]; 3.61 µM in experiment [1]; 3.1 µM in [2]; 10.5 µM in experiment [4]. Also, the TGI in [5] stood at 3.1 µM; in [6], 3.42 µM.
For the compound `Cc1nc(Nc2ccc([N+](=O)[O-])cc2)sc1C(=O)/C=C/c1ccc(N(C)C)cc1`, the TGI in experiment [7], in [9], in experiment [1], in experiment [2], in experiment [3] and in experiment [10] was > 100 µM each time. Moreover, the TGI in experiment [4], in [5] and in experiment [6] was > 100 µM throughout.
Turning to `N#CC(C#N)=C/C=C/c1cccc([N+](=O)[O-])c1`, the GI50 in experiment [7] was 1380 nM; in experiment [8] it was 3.09 µM; in [9] it was 1390 nM; in experiment [3] it was 1.59 µM; in [10], 0.345 µM; in experiment [4], 1.59 µM. In addition, the values for the GI50 in experiment [5] and in [6] were 2280 nM and 914 nM, respectively. For the same compound, the TGI in experiment [7] was 3.23 µM; in experiment [8], 13.9 µM; in experiment [9] it was 3.98 µM; in experiment [3], 9.6 µM; in experiment [10] it was 5.38 µM; in [4] it was > 100 µM. Moreover, the TGI in [5] came to 10.3 µM; in experiment [6], 2.57 µM.
Consider `C[Si](C)(C)[C@@]1([Se]c2ccccc2)CC[C@@H]1C(=O)c1ccccc1`, for which the TGI in [7] is > 100 µM; in [8], > 100 µM; in experiment [9], > 100 µM; in [1] it was 58.1 µM; in experiment [2], > 100 µM; in [3], 53 µM. The TGI in experiment [4], in [5] and in experiment [6] was > 100 µM throughout.
Consider `COc1cc([N+](=O)[O-])c2ncccc2c1O`, for which the GI50 was 2770 nM in experiment [7]; 26.6 µM in [8]; 2560 nM in experiment [9]; 2260 nM in experiment [2]; 27.7 µM in experiment [3]; 43.3 µM in [10]. In addition, the GI50 in experiment [4] was 38.2 µM; in experiment [5], 2290 nM; in [6], 4070 nM. For the same compound, the TGI in experiment [7] is 7.78 µM; in experiment [8] it was > 100 µM; in experiment [9], 13.4 µM; in experiment [2] it was 22.9 µM; in [3], > 100 µM; in experiment [10], > 100 µM. Moreover, the TGI was > 100 µM in experiment [4], 6.77 µM in [5] and > 100 µM in experiment [6].
